These results are taken from patent publication US20250249013A1, “COMBINATION METABOLIC-EPIGENETIC TREATMENT FOR EARLY LUNG CANCER” (THE REGENTS OF THE UNIVERSITY OF CALIFORNIA, priority 2022, published 2025).

For test [1], the system named is NCI-H358 cells. The test can be described thus: EZH2 inhibition with GSK126 in low glucose, western blot. As to conditions: GSK126 0.25 μM. In kind it is cell-based, human. The protocol:
(§1) Human lung cancer A549 (CCL-185) and NCI-H358 (CRL-5807) cells lines were purchased from American Type Culture Collection (ATCC, Manassas, VA). Cells were maintained in culture according to manufacturer protocol using Roswell Park Memorial Institute (RPMI) 1640 medium (Corning, Cat. #10-040CV) supplemented with 10% FBS and 5% 1× Pen-Strep and kept in 37° C. and 5% of CO2. Murine 2953A cell line was established in our lab from a KP lung tumor by tissue dissociation. This cell line was maintained in culture in Dulbecco's modified Eagle Medium (DMEM) medium (Corning, Cat. #10-017CV) with 5% FBS and 5% 1× Pen-Strep.
(§2) All experiments in cell lines were performed in biological triplicate. Cells were seeded at same confluence and grown for 5 days (and for some experiments overnight or up to 9 days or 30 days, as indicated in the figures and text) in different concentration of glucose: high (20 mM), low (1 mM) and for some experiments medium (5 mM), as indicated. We used mediums with glutamine and without glucose: RPMI (Corning Cat. #10-043CV) for A549 and NCI-H358 cells, DMEM (ThermoScientific Cat. #11566025) for 2953A cells, supplemented with 10% FBS, 5% of 1× Pen-Strep and complemented with D-Glucose to the desired final concentration, as indicated in the figures.
(§3) For total protein extraction, cells were harvested, washed twice with ice-cold PBS-EDTA (0.5 mm EDTA), lysed using RIPA buffer (50 mM Tris-HCl pH 7.6, 150 mM NaCl, 0.1% SDS, 0.5% C24H39NaO4, 1% NP-40, 2 mm EDTA, 50 mm NaF) for 15 min on ice and centrifuged at 13,000 rpm for 30 min at +4° C. The resulting protein extracts were quantified using BCA protein assay followed by analysis by SDS-PAGE and Western blotting.
(§4) Histones was extracted from A549, NCI-H358 and 2953A cell lines using the Histone extraction kit (Abcam) according to manufacturer instructions.
(§5) SDS-PAGE and Western blotting analyses were performed using standard protocols. For antibodies information, see Reagents and Tools Table. Western blot images were detected by iBright Imaging Systems (Thermo Fisher Scientific). The protein detected was normalized to Actin or H3 total antibodies, this last in case of histonic extract. Each immunodetection derived from the same membrane was performed with the same exposure times according to the manufacture's antibody guidelines and was cropped only for presentation purposes; this is indicated by a dotted line.

In test [2] the test system is A549 cells. The description is as above. As to conditions: GSK126 0.25 μM. Type of test: cell-based, human. The method, then:
as §1, §2, §3, §4, §5

Another test concerns LUAD. As to conditions: genetically engineered murine models and patient-derived xenografts; cited from earlier work. A general note: Xenograft models place foreign cells or tissue in a host animal.
In a further test the test system is 2953A cells. Nature of the test: αKG rescue in low glucose, western blot and RT-PCR. Particulars: low glucose 5 days. In kind it is cell-based, mouse. The method, then:
as §1, §2
(§6) All αKG rescue experiments were conducted using 10 mM alpha-ketoglutarate (α-KG; Sigma) and α-Mannitol (Sigma) as osmotic control.
as §3, §4, §5
(§7) Total RNA was extracted from A549, NCI-H358 and 2953A by using TRI Reagent Solution (Applied Biosystem), according to manufacturer instruction. RNA concertation was assayed by Nanodrop 3000 spectrophotometer (Thermo Fisher Scientific). Then, 1 μg of RNA was treated with DNase I (Thermo Fisher Scientific) and used for cDNA preparation.
(§8) cDNA was prepared using 1 μg of RNA with SuperScript IV Reverse Transcriptase (Invitrogen). SYBR green-based RT-PCR kit (Biorad) was performed using human and mouse primers (See Table EV11). mRNA levels were normalized to GAPDH (ΔCt=Ctgene of interest-Ct GAPDH) and presented as relative mRNA expression (ΔΔCt=2-(ΔCtsample-ΔCtcontrol)). All primers were designed by NCBI Primer-BLAST and purchased from Integrated DNA Technologies.

Test [3] relates to NCI-H358 cells. The test can be described thus: αKG rescue in low glucose, western blot and RT-PCR. In kind it is cell-based, human. The method, then:
as §1, §2, §6, §3, §4, §5, §7, §8
(In western blotting, separated proteins are transferred to a membrane and probed.)

Test [4] deals with A549 cells. Nature of the test: αKG rescue in low glucose, western blot and RT-PCR. In kind it is cell-based, human. The protocol: as §1, §2, §6, §3, §4, §5, §7, §8
The next test relates to A549 and NCI-H358 cells. The test can be described thus: RNA-seq, genes regulated consistently in both cell lines. Particulars: significantly regulated in at least 3 of the four conditions. In kind it is cell-based, human. The method, then:
(§9) A549 and NCI-H358 cell lines were incubated in triplicate with high glucose (20 mM), low glucose (1 mM), and low glucose+dm-αKG (10 mM). Total RNA was extracted as previously described. RNA sequencing was performed by Med Genome. Sample quality control was performed using Quibit fluorometric (Agilent) and Tapestation bioanalyzer (Agilent). For library preparation TruSeq Stranded Total RNA kit (Illumina) was used and libraries were sequenced on NovaSeq platform (Illumina). The FASTQ data generated was used for gene expression analysis, performed as described in Nassa et al (Nassa et al, 2019).
Briefly, the raw sequence files generated (.fastq files) underwent quality control analysis using FASTQC (http://www.bioinformatics.babraham.ac.uk/projects/fastqc/) and adapter sequences were removed using Trimmomatic version 0.38 (Bolger et al, 2014) Filtered reads were aligned on human genome (assembly hg38) considering genes present in GenCode Release 35 (GRCh38.p12) using STAR v2.7.6a (Dobin et al, 2013) with standard parameters. Quantification of expressed genes was performed using featureCounts (Liao et al, 2014) and differentially expressed genes were identified using DESeq2 (Love et al, 2014). A given RNA was considered expressed when detected by at least ≥10 raw reads. […]

Test [5] relates to NCI-H358 cells. The test can be described thus: RNA-seq, low glucose with dm-αKG. Type of test: cell-based, human. As to conditions: NCI-H358, low glucose + dm-αKG 10 mM, five days. The protocol: as §9
(§10) Briefly, the raw sequence files generated (.fastq files) underwent quality control analysis using FASTQC (http://www.bioinformatics.babraham.ac.uk/projects/fastqc/) and adapter sequences were removed using Trimmomatic version 0.38 (Bolger et al, 2014) Filtered reads were aligned on human genome (assembly hg38) considering genes present in GenCode Release 35 (GRCh38.p12) using STAR v2.7.6a (Dobin et al, 2013) with standard parameters. Quantification of expressed genes was performed using featureCounts (Liao et al, 2014) and differentially expressed genes were identified using DESeq2 (Love et al, 2014). A given RNA was considered expressed when detected by at least ≥10 raw reads.
(§11) Differential expression was reported as Ifold-changel (FC)[…] along with associated adjusted pvalues≤0.05 computed according to Benjamini-Hochberg. Gene Set Enrichment Analysis (GSEA) was performed to examine pathway enrichment for the differential expressed genes with the Molecular Signature Database “Hallmarks” gene set collection (Liberzon et al, 2015). Only those with an FDR […] have been selected.

The subject of test [6] is A549 cells. Nature of the test: RNA-seq, low glucose with dm-αKG. Type of test: cell-based, human. Particulars: A549, low glucose + dm-αKG 10 mM, five days. The protocol:
as §9, §10, §11

[7] abbreviates: A549, low glucose (1 mM) 5 days.
Where [8] appears, read: NCI-H358, low glucose 5 days, dm-αKG.
Setting [9] is: NCI-H358, low glucose 5 days, dm-αKG 10 mM.
The mark [10] stands for this setting: A549, low glucose 5 days, dm-αKG.
Where [11] appears, read: A549, low glucose 5 days, dm-αKG 10 mM.

As to `CC[C@H](C)n1cc(C)c2c(C(=O)NCc3c(C)cc(C)[nH]c3=O)cc(-c3ccc(N4CCNCC4)nc3)cc21` [GSK126], in the test with NCI-H358 cells [1], the EZH2 activity entry was “inhibited”; the “expression of FoxA2, western blot” value is reported as “rescued”; the “tri-methylation of H3K27, western blot” value is “rescued”. Besides, in the test with A549 cells [2] (setting [7]), the “expression of FoxA2, western blot” value is “rescued” and the “tri-methylation of H3K27, western blot” value is reported as “rescued”. In addition, the EZH2 activity entry with A549 cells [2] (A549, low glucose) is given as “inhibited”.

Take `Cc1ccc([C@@H]2O[C@H](CO)[C@@H](O)[C@H](O)[C@H]2O)cc1Cc1ccc(-c2ccc(F)cc2)s1` [canagliflozin]: in the test on LUAD, the “development of LUAD” value is on record as “significantly delays”, the survival result is on record as “prolongs survival” and the tumor growth entry is reported as “reduces tumor growth”.

With `COC(=O)CCC(=O)C(=O)OC` [dm-αKG, dimethyl-αKG], in the test with 2953A cells (dm-αKG), the “H3K4 hyper-methylation, western blot on histone extracts” value (shortened to “H3K4 hyper-methylation, western blot”) is given as “reverse”; the “H3K9 hyper-methylation, western blot on histone extracts” value (from here on “H3K9 hyper-methylation, western blot”) is listed as “reverse”; the “H3K27 hyper-methylation, western blot on histone extracts” value (“H3K27 hyper-methylation, western blot” for short) was “reverse”; the “H3K27 hypo-acetylation, western blot on histone extracts” value (from here on “H3K27 hypo-acetylation, western blot”) is listed as “reverse”. Moreover, in the test on 2953A cells (dm-αKG 10 mM), the “GLUT1 expression, qPCR” value was “reduced”; the “low glucose-induced inhibition of FoxA2 mRNA, qPCR” value is reported as “rescued”; the “low glucose-induced reduction in FOXA2 protein, western blot” value is listed as “rescued”. For the same compound, in the test with NCI-H358 cells [3] (NCI-H358, cells growing in low glucose (so in the source), dm-αKG), the “HIF1α and HIF2α protein, western blot, control condition” value was “did not have any effect”. In the test on NCI-H358 cells [3] (setting [8]), the “H3K4 hyper-methylation, western blot” value is “reverse”; the “H3K9 hyper-methylation, western blot” value is “reverse”; the “H3K27 hyper-methylation, western blot” value was “reverse”; the “H3K27 hypo-acetylation, western blot” value is recorded as “reverse”. For the same compound, in the test on NCI-H358 cells [3] (setting [8]), the “low glucose-induced increase of Slug, western blot” value was “rescued”; the “low glucose-induced repression of PHD3 expression, RT-PCR” value is “rescued”; the “low glucose-induced up-regulation of HIF1α mRNA, RT-PCR” value is “rescued”; the “low glucose-induced up-regulation of HIF1α protein, western blot” value is listed as “reversed”. For the same compound, in the test on NCI-H358 cells [3] (setting [8]), the “low glucose-induced up-regulation of HIF2α mRNA, RT-PCR” value is reported as “rescued” and the “low glucose-induced up-regulation of HIF2α protein, western blot” value is recorded as “reversed”. In the test with NCI-H358 cells [3] (setting [9]), the “GLUT1 expression, qPCR” value is listed as “reduced”; the “low glucose-induced inhibition of FoxA2 mRNA, qPCR” value is reported as “rescued”; the “low glucose-induced inhibition of TTF-1 mRNA, qPCR” value is listed as “rescued”; the “low glucose-induced reduction in FOXA2 protein, western blot” value is on record as “rescued”. Moreover, the “low glucose-induced reduction in TTF1 protein, western blot” value in the test on NCI-H358 cells [3] (setting [9]) is recorded as “rescued”. The “HIF1α and HIF2α protein, western blot, control condition” value with A549 cells [4] (A549, cells growing in low glucose (so in the source), dm-αKG) is listed as “did not have any effect”. Further, in the test on A549 cells [4] (setting [10]), the “H3K4 hyper-methylation, western blot” value is on record as “reverse”; the “H3K9 hyper-methylation, western blot” value is given as “reverse”; the “H3K27 hyper-methylation, western blot” value is “reverse”; the “H3K27 hypo-acetylation, western blot” value was “reverse”. Besides, in the test on A549 cells [4] (setting [10]), the “low glucose-induced increase of Slug, western blot” value was “rescued”; the “low glucose-induced reduction in Snail, western blot” value is on record as “partially rescued”; the “low glucose-induced reduction in ZEB1, western blot” value is reported as “partially rescued”; the “low glucose-induced repression of PHD3 expression, RT-PCR” value was “rescued”. In the test on A549 cells [4] (setting [10]), the “low glucose-induced up-regulation of HIF1α mRNA, RT-PCR” value is given as “rescued”; the “low glucose-induced up-regulation of HIF1α protein, western blot” value is “reversed”; the “low glucose-induced up-regulation of HIF2α mRNA, RT-PCR” value is reported as “rescued”; the “low glucose-induced up-regulation of HIF2α protein, western blot” value is “reversed”. In the test with A549 cells [4] (setting [11]), the “GLUT1 expression, qPCR” value is on record as “reduced”; the “low glucose-induced inhibition of FoxA2 mRNA, qPCR” value is listed as “rescued”; the “low glucose-induced reduction in FOXA2 protein, western blot” value is recorded as “rescued”. Further, in the test on A549 and NCI-H358 cells, the “genes down-regulated by low glucose consistently in both cell lines and rescued by dm-αKG” value is 445 genes; the “genes up-regulated by low glucose consistently in both cell lines and rescued by dm-αKG” value is 524 genes. The “number of low glucose down-regulated genes rescued by dm-αKG” value in the test with NCI-H358 cells [5] (942 genes down-regulated by low glucose) came out at 370 genes. Moreover, the “number of low glucose up-regulated genes rescued by dm-αKG” value in the test with NCI-H358 cells [5] (1,335 genes up-regulated by low glucose) was 510 genes. In addition, the “number of low glucose down-regulated genes rescued by dm-αKG” value in the test on A549 cells [6] (2,024 genes down-regulated by low glucose) is reported as 1,431 genes. In the test with A549 cells [6] (2,394 genes up-regulated by low glucose), the “number of low glucose up-regulated genes rescued by dm-αKG” value was 1,634 genes.
